This is an account of results in patent US20210369710A1, “MODULATORS OF MYC FAMILY PROTO-ONCOGENE PROTEIN” (Nalo Therapeutics, priority 2019, published 2021).

For one assay, the target named is T1, MycC Protein (Homo sapiens, UniProt P01106).
T1 construct: endogenous in cells; host or cells: HL-60 or SKNBE2
The assay can be described thus: Degradation of MycC protein, Western blot band density in cells. The conditions noted are these: HL-60 or SKNBE2 cells; 6 uL of compound (1 mM) added to 3 mL cells; 6 hours; Western blot band density (ImageJ). It counts as cell-based. The method, then:
(§1) In a T150 flask was plated either 2×10^6 of HL-60 (human leukemia cell line) or SKNBE2 (neuroblastoma cell line) cells in a total of 30 mL containing Roswell Park Memorial Institute (RPMI) 1640 Medium (Thermo Fisher, Cat. #11875-085), 10% Fetal Bovine Serum (FBS, Thermo Fisher: Cat. #10437-028), 1% Penicillin/streptomycin (Thermo Fisher: Cat. #10378016), and 1% Amophotericin B (Thermo Fisher, Cat. #15290026). The cells were split every 72 hours by reseeding the HL-60 or SKNBE2 cells, and the passage number was noted. It is noteworthy that cell cultures that were above 40 passages were not used, and most experiments were done with cells of less than 30 passages.
(§2) In a 6-well cell culture plate, a total of 3 mL of either 1×10^6 cells/mL of HL-60 or SKNBE2 cells were seeded, resulting in a total of 3×10^6 cells per well. To each well containing 3 mL of either HL-60 or SKNBE2 cell line was added 6 uL of MycN modulating compound (1 mM) and the resulting plate was shaken from left to right, and not swirled. After 6 hours, the cells were placed in a 15 mL falcon tube and spun at 500 Gs at 4° C. in a swinging bucket centrifuge. The medium was then carefully removed without disturbing the pellet. The pellet was then washed with 3 mLs of chilled phosphate buffered saline (PBS) and subjected to the spin cycle. PBS was then removed and the pellet was lysed in 200 uL of radioimmunoprecipitation (RIPA) lysis buffer (Thermo Fisher: Cat. #899000) that is supplemented with protease and phosphatase inhibitors (Thermo Fisher: Cat. #A32959). The cell lysate was then subjected to spinning in a centrifuge for 10 minutes at 13000G at 4° C. The supernatant was then carefully transferred to a fresh eppendorf tube without disturbing the pellet (˜180 uL). The protein concentration of the cell lysate was then determined by using a bicinchoninic acid (BCA assay) according to manufacturer's protocol (Thermo Fisher: Cat. #23227).
(§3) Cell lysate, approximately 25 ug-30 ug, was loaded per well in a 4-20% polyacrylamide gel (Biorad. Cat. #5671094). After running the dye front off of the gel, the gel was transferred to a nitrocellulose membrane (Biorad: Cat. #1704159) using the transblot turbo system (Biorad: Cat. #1704150) according to manufacturer's protocol. After transferring for 30 minutes, the membrane was blocked with 5% BSA for 1 hour at room temperature. The BSA was then washed off and the primary antibody of choice (1:500) was added, and the membrane was incubated with the primary antibody at 4° C. for overnight. The next morning, the primary antibody was removed and the membrane was washed with 1×-TBST for 10 minutes and repeated three more times. Following the last wash, a secondary antibody (Molecular Devices. Cat. #R8209 or R8208) was added at 1:5000 dilution and incubated for 1 hour at room temperature. Following the incubation with the secondary antibody, the membrane was washed with 1×-TBST for 10 minutes and repeated three more times. Following the last wash, the membrane was washed with de-ionized water twice and dried for at least two hours. Once the membrane is completely dry, the Molecular Devices Spectra Max western system was used to observe the bands. The western image was saved and the band density was measured with ImageJ software.

A further assay has as its target T2, MycN Protein (Homo sapiens, UniProt P04198).
T2 construct: endogenous in cells; host or cells: HL-60 or SKNBE2
T2 sequence (P04198 1-464): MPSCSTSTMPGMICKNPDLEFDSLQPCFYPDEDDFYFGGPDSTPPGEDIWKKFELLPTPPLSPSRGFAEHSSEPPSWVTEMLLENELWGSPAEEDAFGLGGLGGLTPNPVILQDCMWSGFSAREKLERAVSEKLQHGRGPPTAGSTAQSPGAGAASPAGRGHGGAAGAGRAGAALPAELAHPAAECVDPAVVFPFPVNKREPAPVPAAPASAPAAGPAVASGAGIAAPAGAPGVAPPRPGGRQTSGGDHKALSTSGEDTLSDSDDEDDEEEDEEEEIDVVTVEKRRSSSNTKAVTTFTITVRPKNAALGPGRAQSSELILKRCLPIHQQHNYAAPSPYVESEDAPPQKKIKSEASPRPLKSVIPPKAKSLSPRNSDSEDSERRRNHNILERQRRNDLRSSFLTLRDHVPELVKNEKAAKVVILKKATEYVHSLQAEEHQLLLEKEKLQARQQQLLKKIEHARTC
As to the kind of experiment: Degradation of MycN protein, Western blot band density in cells. It counts as cell-based. As to conditions: HL-60 or SKNBE2 cells; 6 uL of compound (1 mM) added to 3 mL cells; 6 hours; Western blot band density (ImageJ). The protocol:
as §1, §2, §3

Bounds are passed on as bounds.

T1 sequence (P01106 whole entry): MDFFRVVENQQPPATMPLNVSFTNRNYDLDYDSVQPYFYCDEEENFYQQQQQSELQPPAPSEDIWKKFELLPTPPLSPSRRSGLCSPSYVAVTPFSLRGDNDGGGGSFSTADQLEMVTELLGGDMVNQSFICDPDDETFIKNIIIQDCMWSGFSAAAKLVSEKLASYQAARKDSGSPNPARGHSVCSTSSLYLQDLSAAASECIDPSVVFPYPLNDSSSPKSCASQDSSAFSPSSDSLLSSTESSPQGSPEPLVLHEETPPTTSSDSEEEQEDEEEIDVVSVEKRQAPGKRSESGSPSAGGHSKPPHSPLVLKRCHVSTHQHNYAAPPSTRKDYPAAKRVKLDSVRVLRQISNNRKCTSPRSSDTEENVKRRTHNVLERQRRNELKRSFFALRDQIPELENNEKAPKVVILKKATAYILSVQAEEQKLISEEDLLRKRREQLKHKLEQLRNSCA

As for `N#Cc1ccc2c(c1)CC(NC(=O)N[C@H]1CC[C@H](Nc3nccc(Nc4cc(C5CCCC5)[nH]n4)n3)CC1)C2` (stereo partly drawn) [Compound 11 (Fraction 1), 1-(5-cyano-2,3-dihydro-1H-inden-2-yl)-3-((1R,4R)-4-((4-((5-cyclopentyl-1H-pyrazol-3-yl)amino)pyrimidin-2-yl)amino)cyclohexyl)urea], the “% Degradation of MycC” value at MycC Protein is “**** (****: degradation 80-100%)”. Moreover, at MycN Protein, the “% Degradation of MycN” value is on record as “** (**: degradation 20-49%)”.

Take `N#Cc1ccc2c(c1)CC(NC(=O)N[C@H]1CC[C@H](Nc3nccc(Nc4cc(C5CCCC5)[nH]n4)n3)CC1)C2` (stereo partly drawn) [Compound 11 (Fraction 2), 1-(5-cyano-2,3-dihydro-1H-inden-2-yl)-3-((1R,4R)-4-((4-((5-cyclopentyl-1H-pyrazol-3-yl)amino)pyrimidin-2-yl)amino)cyclohexyl)urea]: the “% Degradation of MycC” value at MycC Protein is “**** (****: degradation 80-100%)”. In addition, the “% Degradation of MycN” value on MycN Protein is given as “*** (***: degradation 50-79%)”.

On to `O=C(NC1CCN(C2COC2)CC1)N[C@H]1CC[C@H](Nc2nccc(Nc3cc(C4CCCC4)[nH]n3)n2)CC1` [Compound 12, 1-((1R,4R)-4-((4-((5-cyclopentyl-1H-pyrazol-3-yl)amino)pyrimidin-2-yl)amino)cyclohexyl)-3-(1-(oxetan-3-yl)piperidin-4-yl)urea], for which the maximal degradation (Dmax) at 2 µM at MycC Protein and on MycN Protein was under 20% each time.

`CN(c1nccc(Nc2cc(C3CCCC3)[nH]n2)n1)C1CCC(NC(=O)NC2Cc3ccc(C#N)cc3C2)CC1` [Compound 16 (Fraction 1), 1-(5-cyano-2,3-dihydro-1H-inden-2-yl)-3-((1R,4R)-4-((4-((5-cyclopentyl-1H-pyrazol-3-yl)amino)pyrimidin-2-yl)(methyl)amino)cyclohexyl)urea]: at MycC Protein, the “% Degradation of MycC” value was “**** (****: degradation 80-100%)”. Further, the “% Degradation of MycN” value on MycN Protein was “*** (***: degradation 50-79%)”.

Consider `CN(c1nccc(Nc2cc(C3CCCC3)[nH]n2)n1)C1CCC(NC(=O)NC2Cc3ccc(C#N)cc3C2)CC1` [Compound 16 (Fraction 2), 1-(5-cyano-2,3-dihydro-1H-inden-2-yl)-3-((1R,4R)-4-((4-((5-cyclopentyl-1H-pyrazol-3-yl)amino)pyrimidin-2-yl)(methyl)amino)cyclohexyl)urea], for which, at MycC Protein, the “% Degradation of MycC” value is recorded as “**** (****: degradation 80-100%)”. On MycN Protein, the “% Degradation of MycN” value is reported as “*** (***: degradation 50-79%)”.

As to `Cc1nc(-c2ccc3c(c2)CC(NC(=O)N[C@H]2CC[C@H](Nc4nccc(Nc5cc(C6CCCC6)[nH]n5)n4)CC2)C3)no1` (stereo partly drawn) [Compound 20, 1-((1R,4R)-4-((4-((5-cyclopentyl-1H-pyrazol-3-yl)amino)pyrimidin-2-yl)amino)cyclohexyl)-3-(5-(5-methyl-1,2,4-oxadiazol-3-yl)-2,3-dihydro-1H-inden-2-yl)urea], the Dmax at 2 µM at MycC Protein and on MycN Protein was 80 to 100% in each case.

Consider `N#Cc1ccc2c(c1)CC(NC(=O)N[C@H]1CC[C@H](Nc3nccc(Nc4cc(C5CC5)[nH]n4)n3)CC1)C2` (stereo partly drawn) [Compound 21, 1-(5-cyano-2,3-dihydro-1H-inden-2-yl)-3-((1R,4R)-4-((4-((5-cyclopropyl-1H-pyrazol-3-yl)amino)pyrimidin-2-yl)amino)cyclohexyl)urea], for which the Dmax at 2 µM is under 20% at MycC Protein and 20 to 49% on MycN Protein.

For `O=C(NC1CCS(=O)(=O)CC1)N[C@H]1CC[C@H](Nc2nccc(Nc3cc(C4CCCC4)[nH]n3)n2)CC1` [Compound 24], the figures for the greatest degradation seen (Dmax) at 2 µM on MycC Protein and at MycN Protein were 20 to 49% and under 20%, respectively.

In the case of `O=C(NC1CCCS(=O)(=O)C1)N[C@H]1CC[C@H](Nc2nccc(Nc3cc(C4CCCC4)[nH]n3)n2)CC1` (some centres unmarked) [Compound 25], the Dmax at 2 µM at MycC Protein and on MycN Protein was under 20% each time.

Consider `CS(=O)(=O)[C@H]1CCCC(NC(=O)N[C@H]2CC[C@H](Nc3nccc(Nc4cc(C5CCCC5)[nH]n4)n3)CC2)C1` (some centres unmarked) [Compound 26], for which the values for the Dmax at 2 µM on MycC Protein and on MycN Protein were under 20% and 20 to 49%, respectively.

On to `Cc1cc(Nc2ccnc(N[C@H]3CC[C@H](NC(=O)N[C@H]4CC[C@H](S(C)(=O)=O)CC4)CC3)n2)n[nH]1` [Compound 32], for which the Dmax at 2 µM at MycC Protein and on MycN Protein was under 20% each time.

Turning to `O=C(NC1CS(=O)(=O)C1)N[C@H]1CC[C@H](Nc2nccc(Nc3cc(C4CCCC4)[nH]n3)n2)CC1` [Compound 34], the maximal degradation (Dmax) at 2 µM on MycC Protein is 50 to 79%; on MycN Protein, under 20%.

For `O=C(N[C@@H]1CCC[C@H](C(F)(F)F)C1)N[C@H]1CC[C@H](Nc2nccc(Nc3cc(C4CCCC4)[nH]n3)n2)CC1` [Compound 35, 1-((1R,4R)-4-((4-((5-cyclopentyl-1H-pyrazol-3-yl)amino)pyrimidin-2-yl)amino)cyclohexyl)-3-((1R,3S/1S,3R)-3-(trifluoromethyl)cyclohexyl)urea], the Dmax at 2 µM was in the range of 20 to 49% on MycC Protein and 80 to 100% on MycN Protein.

Turning to `O=C(NC1CCC(N2CCOC2=O)CC1)N[C@H]1CC[C@H](Nc2nccc(Nc3cc(C4CCCC4)[nH]n3)n2)CC1` (stereo partly drawn) [Compound 37, 1-((1R,4R)-4-((4-((5-cyclopentyl-1H-pyrazol-3-yl)amino)pyrimidin-2-yl)amino)cyclohexyl)-3-(4-(2-oxooxazolidin-3-yl)cyclohexyl)urea], the Dmax at 2 µM at MycC Protein and on MycN Protein was under 20% in each case.

Consider `CC1(NC(=O)N[C@H]2CC[C@H](Nc3nccc(Nc4cc(C5CCCC5)[nH]n4)n3)CC2)CCOCC1` [Compound 38, 1-((1R,4R)-4-((4-((5-cyclopentyl-1H-pyrazol-3-yl)amino)pyrimidin-2-yl)amino)cyclohexyl)-3-(4-methyltetrahydro-2H-pyran-4-yl)urea], for which the greatest degradation seen (Dmax) at 2 µM at MycC Protein is 50 to 79%; on MycN Protein, 20 to 49%.

For the compound `O=C(Nc1cccc(C(F)(F)F)c1)N[C@H]1CC[C@H](Nc2nccc(Nc3cc(C4CCCC4)[nH]n3)n2)CC1` [Compound 39, 1-((1R,4R)-4-((4-((5-cyclopentyl-1H-pyrazol-3-yl)amino)pyrimidin-2-yl)amino)cyclohexyl)-3-(3-(trifluoromethyl)phenyl)urea], the values for the greatest degradation seen (Dmax) at 2 µM at MycC Protein and on MycN Protein were 20 to 49% and 50 to 79%, respectively.

Consider `O=C(Nc1cccc(C(F)(F)F)c1)N[C@H]1CC[C@@H](Nc2nccc(Nc3cc(C4CCCC4)[nH]n3)n2)CC1` [Compound 40, 1-((1S,4S)-4-((4-((5-cyclopentyl-1H-pyrazol-3-yl)amino)pyrimidin-2-yl)amino)cyclohexyl)-3-(3-(trifluoromethyl)phenyl)urea], for which the Dmax at 2 µM at MycC Protein and at MycN Protein was 50 to 79% each time.

As to `COCCNC(=O)NC1CCC(Nc2nccc(Nc3cc(C4CCCC4)[nH]n3)n2)CC1` [Compound 43, 1-((1R,4R)-4-((4-((5-cyclopentyl-1H-pyrazol-3-yl)amino)pyrimidin-2-yl)amino)cyclohexyl)-3-(2-methoxyethyl)urea], the Dmax at 2 µM at MycC Protein and on MycN Protein was 20 to 49% each time.

Consider `CO[C@H]1C[C@H](NC(=O)NC2CCC(Nc3nccc(Nc4cc(C5CCCC5)[nH]n4)n3)CC2)C1` (stereo partly drawn) [Compound 44, 1-((1R,4R)-4-((4-((5-cyclopentyl-1H-pyrazol-3-yl)amino)pyrimidin-2-yl)amino)cyclohexyl)-3-((1R,3R)-3-methoxycyclobutyl)urea], for which the results for the Dmax at 2 µM at MycC Protein and on MycN Protein were 20 to 49% and under 20%, respectively.
